{
  "source": "patent US20250186503A1",
  "about": "“METHODS AND COMBINATIONS FOR TREATMENT AND T CELL MODULATION” (Juno Therapeutics, Inc., priority 2018, published 2025)",
  "key": {"Ikaros [1]": {"target": "T1, Ikaros (Homo sapiens, UniProt Q13422+Q96SW2)", "T1 construct": "intracellular levels of Ikaros in CD4+ CAR+ or CD8+ CAR+ cells; endogenous in cells; host or cells: primary human CD4+ and CD8+ T cells transduced with an anti-CD19 CAR (FMC63 scFv)", "T1 sequence (Q13422 whole entry)": "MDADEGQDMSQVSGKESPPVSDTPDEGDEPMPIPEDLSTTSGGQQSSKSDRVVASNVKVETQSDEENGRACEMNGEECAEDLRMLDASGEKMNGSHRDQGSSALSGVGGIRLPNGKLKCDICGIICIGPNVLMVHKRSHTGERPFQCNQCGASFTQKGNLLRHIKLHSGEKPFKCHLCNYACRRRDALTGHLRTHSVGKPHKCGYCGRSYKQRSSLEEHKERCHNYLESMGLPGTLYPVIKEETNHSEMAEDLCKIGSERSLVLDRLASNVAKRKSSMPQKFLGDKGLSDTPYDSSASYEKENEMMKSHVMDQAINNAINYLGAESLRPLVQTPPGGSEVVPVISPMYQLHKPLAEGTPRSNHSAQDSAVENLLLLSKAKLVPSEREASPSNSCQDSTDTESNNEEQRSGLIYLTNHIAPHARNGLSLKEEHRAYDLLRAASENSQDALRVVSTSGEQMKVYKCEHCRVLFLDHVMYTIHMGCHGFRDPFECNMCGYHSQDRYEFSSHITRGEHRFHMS", "T1 sequence (Q96SW2 whole entry)": "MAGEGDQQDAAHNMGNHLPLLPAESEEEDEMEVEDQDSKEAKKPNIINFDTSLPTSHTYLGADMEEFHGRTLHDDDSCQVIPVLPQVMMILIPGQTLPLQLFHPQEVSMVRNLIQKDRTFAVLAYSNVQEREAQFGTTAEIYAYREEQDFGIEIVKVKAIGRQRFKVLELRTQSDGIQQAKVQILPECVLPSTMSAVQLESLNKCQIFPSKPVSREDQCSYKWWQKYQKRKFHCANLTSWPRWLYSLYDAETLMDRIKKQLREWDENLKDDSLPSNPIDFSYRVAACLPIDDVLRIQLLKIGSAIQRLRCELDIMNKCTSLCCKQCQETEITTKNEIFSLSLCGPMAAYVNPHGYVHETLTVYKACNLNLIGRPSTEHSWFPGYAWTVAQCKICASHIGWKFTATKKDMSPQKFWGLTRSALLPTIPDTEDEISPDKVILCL", "T1 sequence (Q16531 whole entry partner)": "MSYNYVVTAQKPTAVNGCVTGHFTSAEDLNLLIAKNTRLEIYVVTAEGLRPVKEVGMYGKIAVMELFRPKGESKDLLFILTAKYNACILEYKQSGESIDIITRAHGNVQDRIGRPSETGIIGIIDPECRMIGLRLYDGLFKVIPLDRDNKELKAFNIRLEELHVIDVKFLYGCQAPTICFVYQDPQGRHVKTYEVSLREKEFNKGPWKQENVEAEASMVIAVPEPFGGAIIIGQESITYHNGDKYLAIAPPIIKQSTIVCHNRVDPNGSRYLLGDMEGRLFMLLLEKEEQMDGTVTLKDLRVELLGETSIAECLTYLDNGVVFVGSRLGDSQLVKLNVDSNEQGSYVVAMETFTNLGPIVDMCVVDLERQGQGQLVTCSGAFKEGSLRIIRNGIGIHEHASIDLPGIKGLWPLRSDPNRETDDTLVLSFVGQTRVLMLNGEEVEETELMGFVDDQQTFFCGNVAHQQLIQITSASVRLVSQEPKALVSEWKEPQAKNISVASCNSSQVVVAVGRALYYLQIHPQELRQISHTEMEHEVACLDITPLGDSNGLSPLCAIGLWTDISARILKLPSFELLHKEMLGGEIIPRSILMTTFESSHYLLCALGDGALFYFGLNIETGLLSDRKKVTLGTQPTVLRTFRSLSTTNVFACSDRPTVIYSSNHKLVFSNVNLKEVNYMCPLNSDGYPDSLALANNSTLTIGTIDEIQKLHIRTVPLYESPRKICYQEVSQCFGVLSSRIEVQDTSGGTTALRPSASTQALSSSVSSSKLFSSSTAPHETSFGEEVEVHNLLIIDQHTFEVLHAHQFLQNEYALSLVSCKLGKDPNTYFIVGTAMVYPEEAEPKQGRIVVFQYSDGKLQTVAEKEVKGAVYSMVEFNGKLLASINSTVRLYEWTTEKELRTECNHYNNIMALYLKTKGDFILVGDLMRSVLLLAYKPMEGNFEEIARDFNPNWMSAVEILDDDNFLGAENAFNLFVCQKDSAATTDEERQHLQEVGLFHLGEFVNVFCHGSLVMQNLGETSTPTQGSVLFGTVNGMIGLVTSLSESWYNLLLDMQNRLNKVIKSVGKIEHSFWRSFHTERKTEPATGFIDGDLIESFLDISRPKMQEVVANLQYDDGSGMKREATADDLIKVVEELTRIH", "experiment": "Intracellular Ikaros expression in CAR-expressing T cells", "format": "cell-based", "text": "FIGS. 31A-31C show flow cytometry analysis of intracellular Ikaros or Aiolos expression on both CD4+ anti-CD19 CAR-expressing T cells and CD8+ anti-CD19 CAR-expressing T cells. […] Median fluorescence intensity (MFI) values for Ikaros and Aiolos were normalized and calculated as a percentage relative to […] vehicle control."}, "Ikaros [2]": {"target": "T1, Ikaros", "experiment": "Intracellular Ikaros expression (flow cytometry MFI) in anti-CD19 CAR-expressing T cells after overnight incubation", "format": "cell-based", "protocol": "Transduced populations then were separately incubated in the presence of stimulating reagents for cell expansion."}, "[3]": {"tested_on": "K562.CD19, Raji cells or Granta-519 cells", "experiment": "Cytolytic activity against CD19+ tumor cells after concurrent Compound 2 during chronic stimulation", "format": "cell-based, human", "settings": "0.001 μM or 0.01 μM concurrent; E:T 1:1", "text": "The assessed CD19+tumor cells included K562 cells transduced with CD19 (K562.CD19), Raji cells or Granta-519 cells."}, "[4]": {"tested_on": "IMiD/CELMoD resistant cell line DF-15R", "experiment": "Rescue of chronically stimulated anti-BCMA CAR T cells rechallenged with DF-15R", "format": "cell-based", "settings": "rechallenge with DF-15R", "protocol": "Cytolytic activity and cytokine production following the rechallenge were assessed as described above."}, "[5]": {"tested_on": "Granta-519 tumor spheroids", "experiment": "Granta-519 spheroid tumor growth assay, rescue treatment after chronic stimulation", "format": "cell-based, human", "protocol": "Long-term, chronic stimulation was carried out by stimulation of CAR T cells with 30 μg/mL plate-bound anti-idiotypic (anti-ID) antibody for 6 days, substantially as described in Example 22.\nCells were assessed at various time points for cytolytic function and cytokine function. […] Averaged measurement of tumor spheroid size at Day 9 following co-culture with CAR-T cells was assessed. […] The log 2 fold change compared to control cells (chronically stimulated cells that had not been treated with immunomodulatory compound) is shown in FIG. 49C."}, "RPMI-8226": {"tested_on": "RPMI-8226", "experiment": "Cytolytic activity against RPMI-8226 after seven days incubation with BCMA-conjugated beads", "format": "cell-based, human", "protocol": "Cytolytic activity of CAR+ T cells after incubation with BCMA-conjugated beads was assessed by incubation with the BCMA-expressing target cell line RPMI-8226, which is a BCMA+multiple myeloma cell line. […] The number of viable cells was normalized to cells at day 0 prior to incubation with the RPMI-8226 target cells."}, "anti-BCMA CAR T cells": {"tested_on": "anti-BCMA CAR T cells", "experiment": "Cytokine expression of anti-BCMA CAR T cells stimulated with BCMA-conjugated beads", "format": "cell-based, human", "settings": "24 hours", "protocol": "Cryofrozen anti-BCMA CAR T cells, produced substantially as described in Example 1 and formulated at a 1:1 ratio of CD4+ and CD8+ T cells, were thawed.\nTwenty four hours after addition of BCMA-conjugated beads, the presence of TNF-α, IFNγ, and IL-2 in culture supernatants was assessed.\nIn a further exemplary study, two different anti-BCMA CAR T cell compositions were generated from different donors, each containing T cells expressing the same anti-BCMA CAR. The cells were thawed and incubated with beads (diameter about 4.5 pm) from a 5 μg/mL or 200 μg/mL BCMA-conjugated bead composition generated as described in Example 1. […] Twenty four hours after addition of BCMA-conjugated beads, IL-2 production by the anti-BCMA CAR+ T cells was assessed in culture supernatants.\nThe cells were gated on transduced, live CD3+ cells, and assessed by flow cytometry for intracellular cytokine accumulation of IFNγ and TNFα in CD4+ and CD8+ cells."}, "OPM-2 [6]": {"tested_on": "OPM-2", "experiment": "Cytokine production of anti-BCMA CAR T cells incubated with OPM-2 target cells", "format": "cell-based, human"}, "MM1.S cells": {"tested_on": "MM1.S cells", "experiment": "Serial restimulation of anti-BCMA CAR+ T cells with irradiated MM1.S target cells", "format": "cell-based, human", "design": "CAR-T expansion, each of six donors: dose or concentration left out as unconfirmed", "protocol": "Anti-BCMA CAR+ T cells generated as described above were plated in triplicate at […] cells/well on 96-well plates.\nEvery 3-4 days (start of each new round), CAR T cells were counted. […] 8 rounds of stimulation were carried out during a 31 day culture period. For some rounds, at re-plating, cells were assessed for phenotypic markers via flow cytometry.\nCulture conditions were reset every 3-4 days. Replating was maintained for 28 days or until the cell count was <50,000 cells. Experiments were performed in triplicate in 3 donors. […] Activation of CAR-T cells was measured on cells collected at days 4, 7, and 14 by flow cytometry for CD25."}, "OPM-2 [7]": {"tested_on": "OPM-2", "experiment": "OPM-2 human multiple myeloma orthotopic mouse model, Study 2", "format": "in vivo", "protocol": "In a further study, NOD/Scid/gc^−/− (NSG) mice were injected (i.v.) with OPM-2-luciferase cells as described in Study 1 above and allowed to engraft for 14 days prior to CAR-T (or mock) cell; infusion (i.v.).\nAt 14 days after tumor cell injection (day 0), a subtherapeutic dose of CAR+ T cells (1×10^6 CAR-T cells (generated from two different donors)) or mock control cells was injected intravenously. Data are presented as mean±SEM. For in vivo survival, a Gehan-Breslow-Wilcoxon test was used to compare groups.\nFIG. 10E depicts the results of tumor burden assessment through day 60, as analyzed by the bioluminescence […]. […] P values were obtained by likelihood ratio tests comparing the full model with the effect of interest against the model without the effect of interest.\nBlood from the treated mice was collected for CAR-T pharmacokinetic analysis, and cells were stained with antibodies to exclude mouse-specific cells (H2-kd, TER119, and muCD45) and analyzed by flow cytometry. Cells were gated on CD45+CD3+ CAR+ and the cells per microliter of blood was determined. For pharmacokinetic measurements, each time point was analyzed by one-way ANOVA and Tukey post-hoc test. FIGS. 10G and 10H show the flow cytometric analysis of mock control cells and CAR-T cells in the blood of the mice at days 8, 14, 22, and 28 following injection of the CAR-T cells from two donors."}, "[8]": {"settings": "concurrent lenalidomide (from day −1), vs vehicle with anti-BCMA CAR T alone"}},
  "data": [
    {"smiles": "Cc1nc2cccc(N)c2c(=O)n1C1CCC(=O)NC1=O", "note": "(stereo not shown) [Compound 1, 3-(5-amino-2-methyl-4-oxo-4H-quinazolin-3-yl)-piperidine-2,6-dione]", "values": [
      {"measurement": "Ikaros expression in CAR-expressing T cells", "setting": "Ikaros [1]", "result": "decreased in a concentration dependent manner"},
      {"measurement": "magnitude of Ikaros loss compared with lenalidomide", "setting": "Ikaros [1]", "result": "greater"},
      {"measurement": "reduction in Ikaros expression compared to lenalidomide", "setting": "Ikaros [2]", "result": "greater reduction"},
      {"measurement": "intracellular Ikaros expression", "setting": "Ikaros [2]; CD4+ and CD8+ anti-CD19 CAR-expressing T cells", "result": "concentration-dependent decrease"}
    ]},
    {"smiles": "O=C1CC[C@H](N2Cc3c(OCc4ccc(CN5CCOCC5)cc4)cccc3C2=O)C(=O)N1", "note": "[Compound 2, (S)-3-[4-(4-morpholin-4-ylmethyl-benzyloxy)-1-oxo-1,3-dihydro-isoindol-2-yl]-piperidine-2,6-dione]", "values": [
      {"measurement": "cytolytic activity (tumor cell number over time)", "setting": "[3]", "result": "improved"},
      {"measurement": "cytolytic activity and cytokine production of chronically stimulated anti-BCMA CAR T cells", "setting": "[4]", "result": "increased cytolytic activity"},
      {"measurement": "Granta-519 spheroid growth", "setting": "[5]; 0.001 μM or 0.01 μM rescue, Day 9", "result": "improved CAR T cell cytolytic"},
      {"measurement": "IFNγ in supernatant", "setting": "[5]; 5 days co-culture, rescue treatment", "result": "statistically significant increase"},
      {"measurement": "improvement in cytolytic function compared with Compound 1", "setting": "[5]; rescue treatment", "result": "greater following rescue treatment with Compound 2 than Compound 1"}
    ]},
    {"smiles": "Nc1cccc2c1CN(C1CCC(=O)NC1=O)C2=O", "note": "(stereo not shown) [lenalidomide, 3-(4-amino-1-oxo-1,3-dihydro-2H-isoindol-2-yl)piperidine-2,6-dione]", "values": [
      {"measurement": "RPMI 8226 target cell viability without CAR T cells", "setting": "RPMI-8226; 5 μM", "result": "did not directly influence target cell viability"},
      {"measurement": "cytolytic activity of the CAR+ T cells", "setting": "RPMI-8226; 5 μM preincubation during the seven day bead incubation", "result": "increased"},
      {"measurement": "killing activity", "setting": "RPMI-8226; lenalidomide present during the cell killing assay", "result": "did not substantially affect"},
      {"measurement": "intracellular IFNγ and TNFα cytokine production", "setting": "anti-BCMA CAR T cells; 0.1 μM or 1 μM, 5, 50 or 200 μg/mL BCMA beads", "result": "increased"},
      {"measurement": "IL-2 production in culture supernatants", "setting": "anti-BCMA CAR T cells; 1 μM or 5 μM, 5 or 200 μg/mL BCMA beads, two donors", "result": "increased"},
      {"measurement": "BCMA-induced CAR+ T cell cytokine production (TNF-α, IFNγ, IL-2 in supernatants)", "setting": "anti-BCMA CAR T cells; 5 μM, 5 or 50 μg/mL BCMA beads", "result": "increased"},
      {"measurement": "IFNγ, IL-2 and TNF-α production and/or accumulation", "setting": "OPM-2 [6]; 0.01-10 μM, E:T 1:1, 24 hours, dose-dependent", "result": "enhance"},
      {"measurement": "IFN-γ, IL-2 and TNF-α production on co-culture with OPM-2", "setting": "OPM-2 [6]; all CAR T donors, concentration-dependent", "result": "significantly increased"},
      {"measurement": "projected cell counts over 28 days", "setting": "MM1.S cells; 0.1 μM, 3 donors, relative to controls", "result": "increased"},
      {"measurement": "CAR T CD25 expression", "setting": "MM1.S cells; 0.1 μM, repeated stimulation", "result": "significant increase"},
      {"measurement": "IL-2, IFN-γ and TNF-α production in the media", "setting": "MM1.S cells; 0.1 μM, repeated stimulation", "result": "significant increase"},
      {"measurement": "expansion of anti-BCMA CAR T cells by day 14", "setting": "MM1.S cells; 0.01-10 μM, E:T 1:2, all concentrations", "result": "increased expansion"},
      {"measurement": "expansion of cells expressing two different human anti-BCMA CARs", "setting": "MM1.S cells; beginning between day 21 and day 28", "result": "increase expansion"},
      {"measurement": "CAR-T expansion, each of six donors", "setting": "MM1.S cells; concentration of lenalidomide", "result": "increase or no change"},
      {"measurement": "tumor growth and tumor burden in mice administered CAR+ T cells", "setting": "OPM-2 [7]; 10 mg/kg i.p. daily, 1×10^6 CAR-T cells, both donors, through day 60", "result": "slower tumor growth and reduced tumor burden"},
      {"measurement": "survival, donor 1 and donor 2", "setting": "OPM-2 [7]; [8]", "result": "increased survival"},
      {"measurement": "tumor burden, donor 1", "setting": "OPM-2 [7]; [8]", "result": "significant decrease"},
      {"measurement": "CAR T counts in the peripheral blood after 7 days", "setting": "OPM-2 [7]; concurrent lenalidomide dosing regimen, not at later time points", "result": "increased"},
      {"measurement": "mock CAR T effect on tumor burden, donor 1", "setting": "OPM-2 [7]; lenalidomide with mock cells", "result": "small, but significant"}
    ]}
  ]
}
